Data: PubChem BioAssay AID488877 (The Scripps Research Institute Molecular Screening Center, 2010)
Activity calls are given as the source filed them. The rule behind the calls is not given here.

Tested on: Vero cells SARS-CoV infected, viability, ATP luminescence
Experiment: PubChem AID 488877

SMILES: CC(C)(C)NC(=O)C(c1cccnc1)N(C(=O)c1ccco1)c1ccc(C(C)(C)C)cc1 (stereo unspecified)
- EC50: > 10 µM (inactive)
